Experimental data from ChEMBL document CHEMBL4417631, “Oral peptide inhibitors of interleukin-23 receptor and their use to treat inflammatory bowel diseases” (2017).
Where a SMILES comes first, the peptide text is derived from it. [ ]: non-standard residue; d: D form. hLeu = CC(C)CC[C@H](N)C(=O)O

target: T1, Interleukin-23 receptor (Homo sapiens, UniProt Q5VWK5); test: Inhibition of interleukin-23 binding to human interleukin-23 receptor incubated for 2 hrs by competitive binding ELISA
T1 sequence (Q5VWK5 whole entry): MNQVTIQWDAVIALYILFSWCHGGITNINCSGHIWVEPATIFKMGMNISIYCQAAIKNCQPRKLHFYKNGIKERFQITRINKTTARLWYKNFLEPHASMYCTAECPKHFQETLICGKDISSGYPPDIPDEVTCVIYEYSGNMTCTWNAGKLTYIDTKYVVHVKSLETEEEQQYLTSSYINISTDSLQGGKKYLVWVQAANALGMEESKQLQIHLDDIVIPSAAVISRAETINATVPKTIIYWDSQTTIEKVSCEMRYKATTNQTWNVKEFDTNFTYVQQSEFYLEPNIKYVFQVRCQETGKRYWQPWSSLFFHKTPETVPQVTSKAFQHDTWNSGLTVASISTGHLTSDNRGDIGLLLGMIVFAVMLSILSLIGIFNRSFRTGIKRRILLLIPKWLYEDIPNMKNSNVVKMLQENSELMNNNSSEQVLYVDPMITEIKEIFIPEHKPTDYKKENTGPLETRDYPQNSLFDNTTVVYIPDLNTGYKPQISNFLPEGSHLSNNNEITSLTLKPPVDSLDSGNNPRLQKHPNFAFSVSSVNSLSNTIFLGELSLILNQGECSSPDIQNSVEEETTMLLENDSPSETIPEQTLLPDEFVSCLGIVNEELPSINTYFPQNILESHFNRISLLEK

IC50 | SMILES
> 1000 nM | CC(=O)N[C@@H](CS)C(=O)N[C@@H](C)C(=O)N[C@@H](CC(=O)O)C(=O)N[C@@H](Cc1c[nH]c2ccccc12)C(=O)N[C@H](C(=O)N[C@@H](CS)C(=O)N[C@@H](Cc1ccc(O)cc1)C(=O)N[C@@H](Cc1c[nH]c2ccccc12)C(=O)N[C@@H](CCCCN)C(=O)N[C@H](C(=O)N[C@@H](Cc1ccccc1)C(=O)NCC(=O)O)[C@@H](C)O)C(C)C
500 to 1000 nM | CC(=O)N[C@@H](CS)C(=O)N[C@@H](C)C(=O)N[C@@H](CC(=O)O)C(=O)N[C@@H](Cc1c[nH]c2ccccc12)C(=O)N[C@H](C(=O)N[C@@H](CS)C(=O)N[C@@H](Cc1ccc(O)cc1)C(=O)N[C@@H](Cc1cccc2ccccc12)C(=O)N[C@H](C(=O)N[C@H](C(=O)N[C@@H](Cc1ccccc1)C(=O)NCC(N)=O)[C@@H](C)O)C(C)C)C(C)C
500 to 1000 nM | C[C@@H](O)[C@H](NC(=O)[C@H](CC(=O)O)NC(=O)[C@@H](N)CS)C(=O)N[C@@H](Cc1c[nH]c2ccccc12)C(=O)N[C@@H](CCCCN)C(=O)N[C@@H](CS)C(=O)N[C@@H](Cc1ccc(O)cc1)C(=O)N[C@@H](Cc1c[nH]c2ccccc12)C(=O)N[C@@H](Cc1cnc[nH]1)C(=O)N[C@@H](CCCNC(=N)N)C(=O)N[C@@H](CCC(N)=O)C(=O)N[C@@H](CO)C(N)=O (H-CDTWKCYWHRQS-NH2)
< 500 nM | CC(=O)N[C@@H](CS)C(=O)N[C@@H](C)C(=O)N[C@@H](CC(=O)O)C(=O)N[C@@H](Cc1c[nH]c2ccccc12)C(=O)N[C@H](C(=O)N[C@@H](CS)C(=O)N[C@@H](Cc1ccc(O)cc1)C(=O)N[C@@H](Cc1c[nH]c2ccccc12)C(=O)N[C@@H](Cc1cnc[nH]1)C(=O)N[C@H](C(=O)N[C@@H](Cc1ccccc1)C(=O)NCC(=O)NCCCC(=O)N[C@H](CCCCN)C(=O)O)[C@@H](C)O)C(C)C
500 to 1000 nM | CC(=O)N[C@@H](CS)C(=O)N[C@@H](CCCNC(=N)N)C(=O)N[C@@H](CC(=O)O)C(=O)N[C@@H](Cc1c[nH]c2ccccc12)C(=O)N[C@H](C(=O)N[C@@H](CS)C(=O)N[C@@H](Cc1ccc(O)cc1)C(=O)N[C@@H](Cc1c[nH]c2ccccc12)C(=O)N[C@@H](Cc1cnc[nH]1)C(=O)N[C@H](C(=O)N[C@@H](Cc1ccccc1)C(=O)NCC(N)=O)[C@@H](C)O)C(C)C
> 1000 nM | CC(C)[C@H](NC(=O)[C@H](Cc1c[nH]c2ccccc12)NC(=O)[C@H](CC(=O)O)NC(=O)[C@@H](NC(=O)[C@@H](N)CS)[C@@H](C)O)C(=O)N[C@@H](CS)C(=O)N[C@@H](Cc1ccc(O)cc1)C(=O)N[C@@H](Cc1c[nH]c2ccccc12)C(=O)N[C@@H](Cc1cnc[nH]1)C(=O)N[C@@H](CCC(=O)O)C(=O)N[C@@H](Cc1ccc(O)cc1)C(=O)N[C@@H](CO)C(N)=O (H-CTDWVCYWHEYS-NH2)
> 1000 nM | CC(C)[C@H](NC(=O)[C@H](Cc1cnc[nH]1)NC(=O)[C@H](Cc1c[nH]c2ccccc12)NC(=O)[C@H](Cc1ccc(O)cc1)NC(=O)[C@H](CS)NC(=O)[C@H](CCCNC(=N)N)NC(=O)[C@H](Cc1c[nH]c2ccccc12)NC(=O)[C@H](CC(=O)O)NC(=O)[C@H](CO)NC(=O)[C@@H](N)CS)C(=O)N[C@@H](Cc1ccccc1)C(=O)NCC(N)=O (H-CSDWRCYWHVFG-NH2)

Further lines, the compound ahead of its results:

SMILES | IC50
CC(=O)N[C@@H](CS)C(=O)N[C@@H](CCC(N)=O)C(=O)N[C@H](C(=O)N[C@@H](Cc1c[nH]c2ccccc12)C(=O)N[C@@H](CCC(N)=O)C(=O)N[C@@H](CS)C(=O)N[C@@H](CCc1ccc(O)cc1)C(=O)N[C@@H](Cc1c[nH]c2ccccc12)C(=O)N[C@@H](CCC(C)C)C(=O)N[C@@H](CCC(=O)O)C(=O)N[C@@H](CC(N)=O)C(=O)NCC(N)=O)[C@@H](C)O | 6000 nM
CC(=O)N[C@@H](CS)C(=O)N[C@@H](CCC(N)=O)C(=O)N[C@H](C(=O)N[C@@H](Cc1c[nH]c2ccccc12)C(=O)N[C@@H](CCC(N)=O)C(=O)N[C@@H](CS)C(=O)N[C@@H](Cc1ccc(O)cc1)C(=O)N[C@@H](Cc1c[nH]c2ccccc12)C(=O)N[C@@H](CCCNC(=N)N)C(=O)N[C@H](CCC(=O)O)C(=O)N[C@@H](CC(N)=O)C(=O)NCC(=O)NCCOCC(=O)N[C@H](CCCCN)C(N)=O)[C@@H](C)O | > 1000 nM
CC(=O)N[C@@H](CS)C(=O)N[C@@H](CCC(N)=O)C(=O)N[C@H](C(=O)N[C@@H](Cc1c[nH]c2ccccc12)C(=O)N[C@@H](CCC(N)=O)C(=O)N[C@@H](CS)C(=O)N[C@@H](CC1CCCCC1)C(=O)N[C@@H](Cc1c[nH]c2ccccc12)C(=O)N[C@@H](CCC(C)C)C(=O)N[C@@H](CCC(=O)O)C(=O)N[C@@H](CC(N)=O)C(=O)NCC(N)=O)[C@@H](C)O | 6000 nM
CC(=O)N[C@@H](CS)C(=O)N[C@@H](C)C(=O)N[C@@H](CC(=O)O)C(=O)N[C@@H](Cc1c[nH]c2ccccc12)C(=O)N[C@H](C(=O)N[C@@H](CS)C(=O)N[C@@H](Cc1ccc(O)cc1)C(=O)N[C@@](C)(Cc1ccc(F)cc1)C(=O)N[C@@H](CCCN)C(=O)N[C@@H](CN)C(=O)N[C@@H](Cc1ccccc1)C(=O)NCC(=O)NCCOCC(=O)N[C@H](CCCCN)C(N)=O)C(C)C | > 30000 nM
COc1ccc(C[C@H](NC(=O)[C@@H](NC(=O)[C@H](CCC(N)=O)NC(=O)[C@H](Cc2c[nH]c3ccccc23)NC(=O)[C@@H](NC(=O)[C@H](CCC(N)=O)NC(=O)[C@@H](NC(=O)c2cc(O)c(O)c(O)c2)C(C)(C)S)[C@@H](C)O)C(C)(C)S)C(=O)N[C@@H](Cc2ccc3ccccc3c2)C(=O)N[C@@](C)(CCCCN)C(=O)N[C@@H](CCCCNC(C)=O)C(=O)N[C@@H](CC(N)=O)C(=O)NCC(N)=O)cc1 | 1000 to 10000 nM
CCCCCCCCCCCCCCCC(=O)NCCCC[C@H](NC(=O)[C@H](Cc1c[nH]c2ccccc12)NC(=O)[C@@H](NC(=O)[C@H](CCC(N)=O)NC(=O)[C@H](CS)NC(C)=O)[C@@H](C)O)C(=O)N[C@@H](CS)C(=O)N[C@@H](Cc1ccc(O)cc1)C(=O)N[C@@H](Cc1c[nH]c2ccccc12)C(=O)N[C@@H](CC(C)C)C(=O)N[C@@H](CCC(=O)O)C(=O)N[C@@H](CC(N)=O)C(=O)NCC(N)=O | 30000 nM
C[C@@H](O)[C@H](NC(=O)[C@H](CCC(N)=O)NC(=O)[C@@H](N)CS)C(=O)N[C@@H](Cc1c[nH]c2ccccc12)C(=O)N[C@@H](CCC(N)=O)C(=O)N[C@@H](CS)C(=O)N[C@@H](Cc1ccc(O)cc1)C(=O)N1Cc2ccccc2C[C@H]1C(=O)N[C@@H](CCCN)C(=O)N[C@@H](CCCCN)C(=O)N[C@@H](Cc1ccccc1)C(=O)NCC(=O)NCCOCC(=O)N[C@H](CCCCN)C(N)=O | > 30000 nM
CC(=O)NCCCC[C@H](NC(=O)[C@](C)(CCCCN)NC(=O)NC(=O)[C@H](Cc1ccc(OCCN)cc1)NC(=O)[C@@H]1CSCC[C@H](NC(C)=O)C(=O)N[C@@H](CCC(N)=O)C(=O)N[C@@H]([C@@H](C)O)C(=O)N[C@@H](Cc2c[nH]c3ccccc23)C(=O)N[C@@H](CCC(N)=O)C(=O)N1)C(=O)N[C@@H](CC(N)=O)C(=O)NCC(N)=O | > 3000 nM
CC(=O)N[C@@H](CS)C(=O)N[C@@H](CCC(N)=O)C(=O)N[C@H](C(=O)NCC(=O)N[C@@H](CCC(N)=O)C(=O)N[C@@H](CS)C(=O)N[C@@H](Cc1ccc(O)cc1)C(=O)N[C@@H](Cc1c[nH]c2ccccc12)C(=O)N[C@@H](CCC(C)C)C(=O)N[C@@H](CCC(=O)O)C(=O)N[C@@H](CC(N)=O)C(=O)NCC(N)=O)[C@@H](C)O (Ac-CQTGQCYW[hLeu]ENG-NH2) | > 10000 nM
CC(=O)N[C@@H](CS)C(=O)N[C@@H](CCC(N)=O)C(=O)N[C@H](C(=O)N[C@@H](Cc1c[nH]c2ccccc12)C(=O)N[C@@H](CCC(N)=O)C(=O)N[C@@H](CS)C(=O)N[C@@H](CCC(=O)O)C(=O)N[C@@H](Cc1c[nH]c2ccccc12)C(=O)N[C@@H](CCC(C)C)C(=O)N[C@@H](CCC(=O)O)C(=O)N[C@@H](CC(N)=O)C(=O)NCC(N)=O)[C@@H](C)O | > 30000 nM
CC(=O)NC1CCC/C=C\CCC(C(=O)N[C@@H](Cc2ccc(O)cc2)C(=O)N[C@@H](Cc2c[nH]c3ccccc23)C(=O)N[C@@H](CCCNC(=N)N)C(=O)N[C@@H](CCCCN)C(=O)N[C@@H](Cc2ccccc2)C(=O)NCC(=O)NCCOCC(=O)N[C@H](CCCCN)C(N)=O)NC(=O)[C@H](CCC(N)=O)NC(=O)[C@H](Cc2c[nH]c3ccccc23)NC(=O)[C@H]([C@@H](C)O)NC(=O)[C@H](CCCNC(=N)N)NC1=O (stereo partly specified) | 1000 to 10000 nM
CC(=O)N[C@@H](CCCNC(=N)N)C(=O)N[C@@H](CCC(=O)O)C(=O)NCC(=O)N[C@H](C(=O)N[C@@H](CS)C(=O)N[C@@H](CO)C(=O)N[C@H](C(=O)N[C@@H](Cc1c[nH]c2ccccc12)C(=O)N[C@@H](CCCCN)C(=O)N[C@@H](CS)C(=O)N[C@@H](Cc1ccc(O)cc1)C(=O)N[C@@H](Cc1c[nH]c2ccccc12)C(=O)N[C@@H](Cc1cnc[nH]1)C(=O)N[C@H](C(=O)N[C@@H](Cc1ccccc1)C(=O)NCC(N)=O)[C@@H](C)O)[C@@H](C)O)[C@@H](C)O (Ac-REGTCSTWKCYWHTFG-NH2) | 500 to 1000 nM
CC(=O)N[C@@H](CS)C(=O)N[C@@H](CCC(N)=O)C(=O)N[C@H](C(=O)N[C@@H](Cc1c[nH]c2ccccc12)C(=O)N[C@@H](CCC(N)=O)C(=O)N[C@@H](CS)C(=O)N[C@@H](Cc1ccc(O)cc1)C(=O)N[C@@H](Cc1c[nH]c2ccccc12)C(=O)N[C@@H](CCCNC(=N)N)C(=O)N(C)CC(=O)N[C@@H](CC(N)=O)C(=O)NCC(=O)NCCOCC(=O)N[C@H](CCCCN)C(N)=O)[C@@H](C)O | > 1000 nM
CC(=O)N[C@@H](CS)C(=O)N[C@@H](CCC(N)=O)C(=O)N[C@H](C(=O)N1CCC[C@H]1C(=O)N[C@@H](CCC(N)=O)C(=O)N[C@@H](CS)C(=O)N[C@@H](Cc1ccc(O)cc1)C(=O)N[C@@H](Cc1c[nH]c2ccccc12)C(=O)N[C@@H](CCC(C)C)C(=O)N[C@@H](CCC(=O)O)C(=O)N[C@@H](CC(N)=O)C(=O)NCC(N)=O)[C@@H](C)O (Ac-CQTPQCYW[hLeu]ENG-NH2) | > 10000 nM
